Experimental data taken from the supplement of paper PMC4862054.

Assays:
Assay in all cases: normalised viability (% of control), CellTiter-Blue; higher = more viable cells (about 100 = DMSO control)
BT-549 [1] = conditions: 100 nM; incubation time: 72 h
Method in brief: (§1)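 Each entry is normalised viability at a single listed concentration within a series. It comes from breast cancer cell lines incubated 72 h with compound in 384-well plates, then measured with CellTiter-Blue fluorescence at 560/590 nm. Every plate was normalised between vehicle (100) and a positive kill control (0).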

CAL-148 [2] = conditions: 10 nM; incubation time: 72 h
Method in brief: as §1

CAL-85-1 [3] = conditions: 10 nM; incubation time: 72 h
Method in brief: as §1

HCC1937 [4] = conditions: 100 nM; incubation time: 72 h
Method in brief: as §1

HDQ-P1 [5] = conditions: 10 nM; incubation time: 72 h
Method in brief: as §1

MDA-MB-231 = conditions: 100 nM; incubation time: 72 h
Method in brief: as §1

MDA-MB-468 = conditions: 100 nM; incubation time: 72 h
Method in brief: as §1

SK-BR-3 [6] = conditions: 100 nM; incubation time: 72 h
Method in brief: as §1

BT-474 = conditions: incubation time: 72 h
Method in brief: as §1

BT-549 [7] = conditions: incubation time: 72 h
Method in brief: as §1

CAL-120 = conditions: incubation time: 72 h
Method in brief: as §1

CAL-148 [8] = conditions: incubation time: 72 h
Method in brief: as §1

CAL-51 [9] = conditions: incubation time: 72 h
Method in brief: as §1

DU-4475 [10] = conditions: incubation time: 72 h
Method in brief: as §1

HCC1599 = conditions: incubation time: 72 h
Method in brief: as §1

HCC1937 [11] = conditions: incubation time: 72 h
Method in brief: as §1

HDQ-P1 [12] = conditions: incubation time: 72 h
Method in brief: as §1

Hs578T = conditions: incubation time: 72 h
Method in brief: as §1

MDA-MB-436 = conditions: incubation time: 72 h
Method in brief: as §1

MFM-223 = conditions: incubation time: 72 h
Method in brief: as §1

SK-BR-3 [13] = conditions: incubation time: 72 h
Method in brief: as §1

CAL-148 [14] = conditions: 300 nM; incubation time: 72 h
Description: (§2)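 DSRT, CellTiter-Blue viability, 72 h incubation. Signal is normalised to DMSO and benzethonium chloride controls. Value is the normalised response at dose 6.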

CAL-51 [15] = conditions: 300 nM; incubation time: 72 h
Description: as §2

CAL-85-1 [16] = conditions: 300 nM; incubation time: 72 h
Description: as §2

DU-4475 [17] = conditions: 300 nM; incubation time: 72 h
Description: as §2

HDQ-P1 [18] = conditions: 300 nM; incubation time: 72 h
Description: as §2

MDA-MB-453 = conditions: 300 nM; incubation time: 72 h
Description: as §2

COc1cc([C@@H]2c3cc4c(cc3[C@@H](O[C@@H]3O[C@@H]5CO[C@@H](c6cccs6)O[C@H]5[C@H](O)[C@H]3O)[C@H]3COC(=O)[C@H]23)OCO4)cc(OC)c1O [Teniposide]
Conditions	normalised viability [%]
BT-549 [1]	70.9
CAL-51 [15]	28.1
CAL-85-1 [3]	101
CAL-85-1 [16]	82.6
CAL-148 [2]	95.5
CAL-148 [14]	49.2
DU-4475 [17]	10.4
HCC1937 [4]	61.4
HDQ-P1 [5]	106
HDQ-P1 [18]	86.3
MDA-MB-231	81.8
MDA-MB-453	87.9
MDA-MB-468	79.8
SK-BR-3 [6]	52.3

normalised viability [%]
Conditions	3 nM	10 nM	30 nM	100 nM	1000 nM	10000 nM
BT-474	–	118	–	–	113	50.8
BT-549 [7]	–	101	–	–	62.4	8.99
CAL-51 [9]	98.2	–	78.2	43.4	–	–
CAL-120	–	108	–	–	55.9	10.3
CAL-148 [8]	103	–	69.3	61	–	–
DU-4475 [10]	82	–	67.8	28.1	–	–
HCC1599	–	80.8	–	–	65.1	47.9
HCC1937 [11]	–	82.3	–	–	21	18.8
HDQ-P1 [12]	113	–	113	104	–	–
Hs578T	–	109	–	–	94.5	12.2
MDA-MB-436	–	92.1	–	–	55.1	23.6
MFM-223	–	99.3	–	–	84.4	13.1
SK-BR-3 [13]	–	105	–	–	20.9	7.84

COc1cc2nccc(Oc3ccc(NC(=O)Nc4cc(C)on4)c(Cl)c3)c2cc1OC [Tivozanib]
Conditions	normalised viability [%]
BT-549 [1]	90.4
CAL-51 [15]	89.8
CAL-85-1 [3]	103
CAL-85-1 [16]	102
CAL-148 [2]	95.6
CAL-148 [14]	95.9
DU-4475 [17]	109
HCC1937 [4]	88.2
HDQ-P1 [5]	79
HDQ-P1 [18]	61.2
MDA-MB-231	91.1
MDA-MB-453	95.8
MDA-MB-468	96.8
SK-BR-3 [6]	105

normalised viability [%]
Conditions	3 nM	10 nM	30 nM	100 nM	1000 nM	10000 nM
BT-474	–	111	–	–	96.4	62.8
BT-549 [7]	–	82.7	–	–	97.6	36.5
CAL-51 [9]	100	–	103	96.3	–	–
CAL-120	–	101	–	–	98.7	47.8
CAL-148 [8]	95	–	96.6	91.8	–	–
DU-4475 [10]	103	–	101	119	–	–
HCC1599	–	121	–	–	98.8	79
HCC1937 [11]	–	127	–	–	88.2	63
HDQ-P1 [12]	83.1	–	85.8	99.7	–	–
Hs578T	–	109	–	–	84.8	58.2
MDA-MB-436	–	101	–	–	97.1	72.4
MFM-223	–	93.6	–	–	55.3	40.2
SK-BR-3 [13]	–	99.7	–	–	99.1	68.9

CC1=C(/C=C/C(C)=C/C=C/C(C)=C/C(=O)O)C(C)(C)CCC1 [Tretinoin]
Conditions	normalised viability [%]
BT-549 [1]	107
CAL-51 [15]	96.2
CAL-85-1 [3]	99.2
CAL-85-1 [16]	96.6
CAL-148 [2]	92.1
CAL-148 [14]	74
DU-4475 [17]	91.1
HCC1937 [4]	98.9
HDQ-P1 [5]	125
HDQ-P1 [18]	94.9
MDA-MB-231	94
MDA-MB-453	91.5
MDA-MB-468	115
SK-BR-3 [6]	87.1

normalised viability [%]
Conditions	3 nM	10 nM	30 nM	100 nM	1000 nM	10000 nM
BT-474	–	129	–	–	111	115
BT-549 [7]	–	87.5	–	–	100	106
CAL-51 [9]	106	–	94.6	99.6	–	–
CAL-120	–	82.5	–	–	81.2	92.8
CAL-148 [8]	81.6	–	89.9	87.8	–	–
DU-4475 [10]	78.4	–	93.1	83.7	–	–
HCC1599	–	114	–	–	77.4	84.2
HCC1937 [11]	–	106	–	–	80.6	88.1
HDQ-P1 [12]	120	–	122	107	–	–
Hs578T	–	123	–	–	105	100
MDA-MB-436	–	97.9	–	–	81.6	95.5
MFM-223	–	92.6	–	–	89.7	84.3
SK-BR-3 [13]	–	103	–	–	66	45
